For assay [1], the system named is T. brucei TC221 bloodstream forms. Nature of the assay: T. brucei growth inhibition assay (resazurin). Particulars: Trypanosoma brucei, 72 h, 48 h + 24 h with resazurine. It is filed as cell-based. The procedure:
(§1) The cell culture conditions and the growth inhibition assay on T. brucei and Balb/3T3 cells were performed as described before. T. brucei TC221 bloodstream forms and mouse embryonic fibroblast Balb/3T3 cells (ATCC no CCL-163) were cultivated in vented plastic flasks at 37 °C with 5% CO2. For T. brucei, the growth medium was HMI-9 [45] supplemented with 10% (v/v) fetal bovine serum (Gibco, Waltham, MA, USA), whereas the Balb/3T3 cells were grown in Dulbecco’s Modified Eagle’s Medium (Sigma-Aldrich) supplemented with 10% (v/v) heat-inactivated fetal bovine serum, glutamine (0.584 g/L), and 10 mL/L 100× penicillin-streptomycin (Gibco). The essential oils or pure compounds identified from these oils were dissolved in dimethyl sulfoxide (DMSO) and serially diluted with growth medium in white 96-well microtiter plates. 20,000 bloodstream forms of T. brucei or Balb/3T3 cells were added to each well in a final volume of 200 μL. In the case of mammalian cells, we also tested 2000 cells/well with similar results. […] Cell viability was verified by a drug-free control for each compound. The plates were incubated for 48 h in the CO2 incubator; then 20 μL of 0.5 mM resazurine (Sigma Aldrich) was added to each well, and the plates were incubated for an additional 24 h before the fluorescence was measured with an Infinite M200 microplate reader (Tecan group, Ltd., Männedorf, Switzerland) equipped with 540 and 590 nm excitation and emission filters. The half maximal inhibitory concentration (IC50) values were calculated on a log inhibitor versus the response curves by non-linear regression using the GraphPad prism 5.04 software (GraphPad Software, Inc., La Jolla, CA, USA).
(Alamar Blue is a resazurin reagent that responds to reducing activity.)

The next assay concerns Balb/3T3 cells. As to the kind of experiment: Mammalian cell growth inhibition assay (resazurin). It is filed as cell-based, mouse. The conditions noted are these: for CC50: BALB/3T3, 72 h, mouse embryonic fibroblast cells, 48 h + 24 h with resazurine, read-out: IC50 Balb/3T3; for Selectivity Index (SI): Balb/3T3 versus T. b. brucei TC221. The procedure: as §1
The mark [2] stands for this setting: read-out: IC50 T. b. brucei (TC221).
Setting [3] is: µM value in parentheses, read-out: IC50 T. b. brucei (TC221), value in brackets (converted).

Each structure is given as a SMILES string. Where two headings read alike, the source gives them in different places.

In the case of `C=C1CCC2CC1C2(C)C` (stereo not drawn) [β-Pinene], the figures for the IC50 in assay [1] (setting [2]) and in assay [1] (setting [3]) were 11.4 ± 2.6 µg/mL and 83.7 µM, respectively. Besides, the CC50 in the assay with Balb/3T3 cells was greater than 100 µg/mL. In the assay on Balb/3T3 cells, the “Selectivity Index (SI)” value was greater than 8.77.
Take `Cc1ccc(C(=O)Nc2ccc(S(=O)(=O)O)c3cc(S(=O)(=O)O)cc(S(=O)(=O)O)c23)cc1NC(=O)c1cccc(NC(=O)Nc2cccc(C(=O)Nc3cc(C(=O)Nc4ccc(S(=O)(=O)O)c5cc(S(=O)(=O)O)cc(S(=O)(=O)O)c45)ccc3C)c2)c1` [Suramin, reference compound]: the concentration for half-maximal inhibition (IC50) in assay [1] (setting [2]) was 0.0286 ± 0.0008 µg/mL; in assay [1] (setting [3]), 0.022 µM.
Regarding `C=C1CCC2(C(C)C)CC12` (stereo not shown) [Sabinene], the concentration for half-maximal inhibition (IC50) in assay [1] (setting [2]) was 5.96 ± 1.3 µg/mL; in assay [1] (setting [3]) it was 43.8 µM. The CC50 in the assay on Balb/3T3 cells was greater than 100 µg/mL. Besides, the “Selectivity Index (SI)” value with Balb/3T3 cells is greater than 16.7.
`C=C1CC/C=C(\C)CC[C@@H]2[C@@H]1CC2(C)C` [(E)-Caryophyllene]: the IC50 in assay [1] (setting [2]) was 8.25 ± 1.3 µg/mL. In assay [1] (setting [3]), the IC50 is 40.4 µM. Besides, in the assay with Balb/3T3 cells, the CC50 was greater than 100 µg/mL and the “Selectivity Index (SI)” value was greater than 12.1.
Regarding `CC12CCC(CC1)C(C)(C)O2` [1,8-Cineole], in assay [1] (setting [2]), the IC50 was greater than 100 µg/mL.
Turning to `CC1=CCC(O)(C(C)C)CC1` (stereo not shown) [Terpinen-4-ol], the IC50 in assay [1] (setting [2]) is greater than 100 µg/mL.

As a reminder, the IC50 is the concentration needed to halve the response being measured.

For the origin of these results see PMC5551175, “Trypanosoma brucei Inhibition by Essential Oils from Medicinal and Aromatic Plants Traditionally Used in Cameroon (Azadirachta indica, Aframomum melegueta, Aframomum daniellii, Clausena anisata, Dichrostachys cinerea and Echinops giganteus)” (International Journal of Environmental Research and Public …, 2017).
